Laboratory results reported in ChEMBL document CHEMBL1149779, “Synthesis, characterization and in vitro release studies of a new acetazolamide-HP-beta-CD-TEA inclusion complex” (Eur J Med Chem, 2008).
≈ marks a conversion by molar mass, not a printed value.

Experiments:
physchem [1] = conditions: water
Description: Solubility in water in presence of 0.0151 mol/l hydroxypropyl-beta-cyclodextrin

physchem [2] = conditions: NaOH-NaHCO3 buffer, pH 9.57
Description: Solubility in NaOH-NaHCO3 buffer at pH 9.57 in presence of 0.1132 mol/l hydroxypropyl-beta-cyclodextrin

physchem [3] = conditions: water; remark: listed apart in the source
Description: Solubility in water in presence of 0.0604 mol/l hydroxypropyl-beta-cyclodextrin

physchem [4] = conditions: NaOH-NaHCO3 buffer, pH 9.57; remark: listed apart in the source
Description: Solubility in NaOH-NaHCO3 buffer at pH 9.57 in presence of 0.0755 mol/l hydroxypropyl-beta-cyclodextrin

physchem [5] = conditions: citric acid-Na2HPO4 buffer, pH 4.12
Description: Solubility in citric acid-Na2HPO4 buffer at pH 4.12 in presence of 0.0604 mol/l hydroxypropyl-beta-cyclodextrin

physchem [6] = conditions: citric acid-Na2HPO4 buffer, pH 4.12; remark: listed apart in the source
Description: Solubility in citric acid-Na2HPO4 buffer at pH 4.12 in presence of 0.0302 mol/l hydroxypropyl-beta-cyclodextrin

physchem [7] = conditions: water; remark: listed apart in the source
Description: Solubility in water in presence of 0.1001 mol/l triethanolamine

physchem [8] = conditions: water; remark: listed apart in the source
Description: Solubility in water in presence of 0.334 mol/l triethanolamine

physchem [9] = conditions: NaOH-NaHCO3 buffer, pH 9.57; remark: listed apart in the source
Description: Solubility in NaOH-NaHCO3 buffer at pH 9.57

physchem [10] = conditions: water; remark: listed apart in the source
Description: Solubility in water in presence of 0.0302 mol/l hydroxypropyl-beta-cyclodextrin

physchem [11] = conditions: water; remark: listed apart in the source
Description: Solubility in water in presence of 0.1132 mol/l hydroxypropyl-beta-cyclodextrin

physchem [12] = conditions: citric acid-Na2HPO4 buffer, pH 4.12; remark: listed apart in the source
Description: Solubility in citric acid-Na2HPO4 buffer at pH 4.12 in presence of 0.0226 mol/l hydroxypropyl-beta-cyclodextrin

physchem [13] = conditions: citric acid-Na2HPO4 buffer, pH 4.12; remark: listed apart in the source
Description: Solubility in citric acid-Na2HPO4 buffer at pH 4.12 in presence of 0.0755 mol/l hydroxypropyl-beta-cyclodextrin

physchem [14] = conditions: NaOH-NaHCO3 buffer, pH 9.57; remark: listed apart in the source
Description: Solubility in NaOH-NaHCO3 buffer at pH 9.57 in presence of 0.0604 mol/l hydroxypropyl-beta-cyclodextrin

physchem [15] = conditions: NaOH-NaHCO3 buffer, pH 9.57; remark: listed apart in the source
Description: Solubility in NaOH-NaHCO3 buffer at pH 9.57 in presence of 0.0302 mol/l hydroxypropyl-beta-cyclodextrin

physchem [16] = conditions: NaOH-NaHCO3 buffer, pH 9.57; remark: listed apart in the source
Description: Solubility in NaOH-NaHCO3 buffer at pH 9.57 in presence of 0.0226 mol/l hydroxypropyl-beta-cyclodextrin

physchem [17] = conditions: NaOH-NaHCO3 buffer, pH 9.57; remark: listed apart in the source
Description: Solubility in NaOH-NaHCO3 buffer at pH 9.57 in presence of 0.1660 mol/l hydroxypropyl-beta-cyclodextrin

[18] = Permeability across rabbit cornea; type: ADME, tissue-based, Oryctolagus cuniculus
physchem [19] = conditions: water; remark: listed apart in the source
physchem [20] = conditions: citric acid-Na2HPO4 buffer, pH 4.12; remark: listed apart in the source
Description: Solubility in citric acid-Na2HPO4 buffer at pH 4.12 in presence of 0.1660mol/l hydroxypropyl-beta-cyclodextrin

physchem [21] = conditions: citric acid-Na2HPO4 buffer, pH 4.12; remark: listed apart in the source
Description: Solubility in citric acid-Na2HPO4 buffer at pH 4.12 in presence of 0.2 M hydroxypropyl-beta-cyclodextrin

physchem [22] = conditions: citric acid-Na2HPO4 buffer, pH 4.12; remark: listed apart in the source
Description: Solubility in citric acid-Na2HPO4 buffer at pH 4.12

physchem [23] = conditions: citric acid-Na2HPO4 buffer, pH 4.12; remark: listed apart in the source
Description: Solubility in citric acid-Na2HPO4 buffer at pH 4.12 in presence of 0.1132 mol/l hydroxypropyl-beta-cyclodextrin

physchem [24] = conditions: NaOH-NaHCO3 buffer, pH 9.57; remark: listed apart in the source
Description: Solubility in NaOH-NaHCO3 buffer at pH 9.57 in presence of 0.2 M hydroxypropyl-beta-cyclodextrin

physchem [25] = conditions: water; remark: listed apart in the source
Description: Solubility in water in presence of 0.0755 mol/l hydroxypropyl-beta-cyclodextrin

CC(=O)Nc1nnc(S(N)(=O)=O)s1 [ACETAZOLAMIDE] gave a solubility (physchem [1]) of 1880 µg/mL (≈ 8.46 mM), a solubility (physchem [2]) of 5930 µg/mL (≈ 26.7 mM) and a solubility (physchem [3]) of 4510 µg/mL (≈ 20.3 mM). It also gave a solubility (physchem [4]) of 5290 µg/mL (≈ 23.8 mM), a solubility (physchem [5]) of 2280 µg/mL (≈ 10.3 mM) and a solubility (physchem [6]) of 1830 µg/mL (≈ 8.23 mM). For the same compound, the solubility (physchem [7]) was 5910 µg/mL (≈ 26.6 mM), the solubility (physchem [8]) was 3860 µg/mL (≈ 17.4 mM) and the solubility (physchem [9]) was 2770 µg/mL (≈ 12.5 mM). It also gave a solubility (physchem [10]) of 2440 µg/mL (≈ 11 mM), a solubility (physchem [11]) of 7030 µg/mL (≈ 31.6 mM) and a solubility (physchem [12]) of 1660 µg/mL (≈ 7.47 mM). The solubility (physchem [13]) was 2960 µg/mL (≈ 13.3 mM), the solubility (physchem [14]) was 4770 µg/mL (≈ 21.5 mM) and the solubility (physchem [15]) was 3620 µg/mL (≈ 16.3 mM). The solubility (physchem [16]) was 3210 µg/mL (≈ 14.4 mM), the solubility (physchem [17]) was 7020 µg/mL (≈ 31.6 mM) and the permeability [18] was 4.1 ×10⁻⁶ cm/s. The solubility (physchem [19]) was 810 µg/mL (≈ 3.64 mM), the solubility (physchem [20]) was 4970 µg/mL (≈ 22.4 mM) and the solubility (physchem [21]) was 4970 µg/mL (≈ 22.4 mM). The solubility (physchem [22]) was 850 µg/mL (≈ 3.82 mM), the solubility (physchem [23]) was 3780 µg/mL (≈ 17 mM) and the solubility (physchem [24]) was 7020 µg/mL (≈ 31.6 mM). The solubility (physchem [25]) was 5530 µg/mL (≈ 24.9 mM).
